Measured values reported in patent publication US20120142771A1, “BIPHENYLACETAMIDE DERIVATIVE” (Dainippon Sumitomo Pharma Co., Ltd., priority 2008, published 2012).

System: amygdala-kindling model
Test: Amygdala-kindling model in rats
Format: in vivo
Text: Test 3: Test with Amygdala-Kindling Model in Rats
Test 3 evaluates the anticonvulsant action of medicaments in rats, besides mice in Tests 1 and 2. Animal model (kindling model) used herein is a very similar model to clinical findings of focal onset seizures (i.e. simple partial seizure, complex partial seizure, and secondarily generalized tonic-clonic seizure), which is known to provide excellent clinical prediction. A chronic electrode was implanted in the cortex (frontal and posterior regions) and the amygdala of Slc: Wistar male rats (body weight 250-300 g). One week after the above operation, electrical stimulation (50 Hz, 400 μA, 1 second) into the amygdala was conducted once a day for about two weeks. The stimulation condition was determined according to the method of Loscher et al. [Epilepsy Res., 40: 63-77 (2000)]. The stimulation was continued until the seizure stage 5 in the seizure severity stages according to the method of Racine et al. [Motor seizure. Electroenceph. Clin. Neurophysiol., 32:281-294 (1972)] was observed 10 consecutive times. Kindling model was thus completed. Then, test compounds (100 mg/kg) were orally administered to this model. After an hour of administration, the rats were evaluated based on three parameters, i.e., a threshold stimulus current to induce seizure (i.e. seizure threshold), the duration of afterdischrage observed on an electroencephalogram, and seizure severity (stage scores 1-5). The results of the seizure threshold and the afterdischarge duration were shown as average percentage of change from the pretreatment value obtained before the administration of each test compound. To the control rats, 0.5% tragacanth solution was administered. Minus means decreased or shortened.

SMILES: NC(=O)Cc1ccccc1-c1ccccc1F [Example 1, 2-(2′-Fluorobiphenyl-2-yl)acetamide]
- Seizure threshold (uA) Δ % change (100 mg/kg oral, 1 hour after administration, average percentage of change from pretreatment value): 69.3%
- Afterdischarge duration (sec) Δ % change (100 mg/kg oral, 1 hour after administration, change from pretreatment value, minus means shortened): −88%
- Seizure severity score (100 mg/kg oral, 1 hour after administration, stage scores 1-5): 2.0
- efficacy against the amygdala-kindling model (oral administration at a dose of 100 mg/kg): potent efficacy
